Reference: paper PMC10791743, “Selective CK1α degraders exert antiproliferative activity against a broad range of human cancer cell lines” (Nature Communications, 2024)
pIC50: −log10 of the molar value. “Also recorded” adds a separate entry of the source. Where two headings read alike, the source gives them in different places.

Test system: 115 human cancer cell lines
Test: Oncolines panel cell viability assay (ATPlite, 72 h)
Type: cell-based
Details: for pIC50: Homo sapiens
Description: To evaluate the compound’s effect and potential therapeutic application across a diverse range of human cancers, we profiled SJ3149 in Oncolines® panel consisting of 115 human cancer cell lines, of which 86 were solid tumor and 29 hematologic cell lines, including MOLM-13. Effect on cell viability was monitored using ATPLite™ (Perkin Elmer), which measures intracellular ATP content as an indirect readout of cell number, like CellTiter Glo.
Cell lines were purchased from the American Type Culture Collection (ATCC) (Manassas, VA, USA) or the German Collection of Microorganisms and Cell Cultures (DSMZ) (Braunschweig, Germany). All experiments were carried out within ten passages of the original vials. Authenticity of the cell lines was confirmed by short tandem repeat analysis at the respective provider.
Cell viability assays were performed as previously described. In brief, cells were seeded in a 384-well plate at an optimized density. The starting cell number was determined after 24 h incubation by adding ATPlite 1Step (Perkin Elmer, Groningen, the Netherlands) to each well and recording luminescence on an Envision multimode reader (Perkin Elmer, Waltham, MA). After the addition of a duplicate 9-point dilution series of SJ3149, cells were incubated for another 72 h, followed by cell counting using ATPlite 1Step. The dilution series ranged from 3.2 to 31,600 nM or was diluted 100-fold for the most sensitive cell lines to ideally capture the complete dose–response curve. Percentage viability was determined at each compound concentration by relating the observed signal to a vehicle-treated control, that is, medium containing 0.4% (v/v) DMSO. Compound IC50 values were calculated by fitting a 4-parameter logistic curve to the percentage viability values using IDBS XLfit5 (IDBS, Guildford, UK). The IC50 was limited to the maximum tested compound concentration when the IC50 exceeded the maximum tested concentration.

## O=C1CCC(N2Cc3cc(Nc4noc5ccccc45)ccc3C2=O)C(=O)N1 (stereo not drawn) [SJ3149]
ATPlite, 72 h
  Inhibition of viability in Oncolines panel cell lines: potently inhibited the viability of AML cell lines; also recorded: potently inhibited the viability of multiple cell lines derived from solid tumors; also recorded: low nanomolar or even sub-nanomolar potency
769-P, cell line 769-P, Renal cell carcinoma, TP53 Wild-type, read-out: IC50
  pIC50: 7.00
A204, cell line A-204, Embryonal rhabdomyosarcoma, TP53 Wild-type, read-out: IC50
  pIC50: 7.80
A498, cell line A-498, Renal cell carcinoma, TP53 Wild-type, read-out: IC50
  pIC50: 5.25
A549, cell line A-549, Lung adenocarcinoma, TP53 Wild-type, read-out: IC50
  pIC50: 7.42
A-375, cell line A375, Amelanotic melanoma, TP53 Wild-type, read-out: IC50
  pIC50: 7.48
ACHN, cell line ACHN, Papillary renal cell carcinoma, TP53 Wild-type, read-out: IC50
  pIC50: 6.73
AU565, cell line AU-565, Breast adenocarcinoma, TP53 Mutant, read-out: IC50
  pIC50: 4.72
B-cell, HT, Diffuse large B-cell lymphoma, read-out: IC50
  pIC50: < 4.50
B-cell, RL, Diffuse large B-cell lymphoma, TP53 Mutant, read-out: IC50
  pIC50: 4.57
B-cell, cell line DB, Diffuse large B-cell lymphoma, TP53 Mutant, read-out: IC50
  pIC50: < 4.50
BT-20, cell line BT-20, Invasive ductal carcinoma, TP53 Mutant, read-out: IC50
  pIC50: 7.52
BT-549, cell line BT-549, Invasive ductal carcinoma, TP53 Mutant, read-out: IC50
  pIC50: 7.92
CCRF-CEM, cell line CCRF-CEM, Childhood T acute lymphoblastic leukemia, TP53 Mutant, read-out: IC50
  pIC50: 4.62
CCRF-HSB-2, CCRF-HSB-2 cells, T-ALL, read-out: IC50
  pIC50: 7.80
CCRF-HSB-2, cell line CCRF-HSB-2, Childhood T acute lymphoblastic leukemia, TP53 Wild-type, read-out: IC50
  pIC50: 7.80
CTV-1, cell line CTV-1, Adult T acute lymphoblastic leukemia, TP53 Wild-type, read-out: IC50
  pIC50: 6.67
DU-4475, cell line DU4475, Breast carcinoma, TP53 Wild-type, read-out: IC50
  pIC50: 7.80
HuTu80, HuTu 80, Duodenal adenocarcinoma, read-out: IC50
  pIC50: 8.34
J82, Bladder carcinoma, read-out: IC50
  pIC50: < 4.50
JAR, Gestational choriocarcinoma, read-out: IC50
  pIC50: 7.16
JM-1, B acute lymphoblastic leukemia, read-out: IC50
  pIC50: 7.41
Jurkat E6.1, Jurkat E6.1, Childhood T acute lymphoblastic leukemia, read-out: IC50
  pIC50: 4.67
KATO III, Signet ring cell gastric adenocarcinoma, read-out: IC50
  pIC50: 4.50
KG-1, Adult acute myeloid leukemia, read-out: IC50
  pIC50: 5.46
KLE, Endometrial adenocarcinoma, read-out: IC50
  pIC50: 7.55
KU812, KU812, Chronic myelogenous leukemia, read-out: IC50
  pIC50: 9.12
LNCaP, LNCaP FGC, Prostate carcinoma, read-out: IC50
  pIC50: 7.04
LS174T, LS 174T, Colon adenocarcinoma, read-out: IC50
  pIC50: 7.80
LoVo, Colon adenocarcinoma, read-out: IC50
  pIC50: 9.55
MCF7, MCF7, Invasive ductal carcinoma, read-out: IC50
  pIC50: 7.74
MOLM-13, MOLM-13, Adult acute myeloid leukemia, read-out: IC50
  pIC50: 8.38
MOLM-13, MOLM-13 cells, AML, read-out: IC50
  pIC50: 8.38
MOLT-4, MOLT-4, Adult T acute lymphoblastic leukemia, read-out: IC50
  pIC50: 7.46
NB4, Acute promyelocytic leukemia with PML-RARA, read-out: IC50
  pIC50: < 4.50
NCCIT, Testicular embryonal carcinoma, read-out: IC50
  pIC50: 8.38
NOMO-1, NOMO-1, Adult acute monocytic leukemia, read-out: IC50
  pIC50: 7.28
PA-1, Ovarian mixed germ cell tumor, TP53 Wild-type, read-out: IC50
  pIC50: 8.55
PC-3, Prostate carcinoma, TP53 Mutant, read-out: IC50
  pIC50: < 4.50
RD, Embryonal rhabdomyosarcoma, TP53 Mutant, read-out: IC50
  pIC50: 6.98
RKO, Colon carcinoma, TP53 Wild-type, read-out: IC50
  pIC50: 4.57
RL95-2, RL95-2, Endometrial adenosquamous carcinoma, TP53 Mutant, read-out: IC50
  pIC50: 7.24
RPMI 8402, RPMI-8402, Childhood T acute lymphoblastic leukemia, TP53 Wild-type, read-out: IC50
  pIC50: 4.62
RS4-11, RS4-11, Adult B acute lymphoblastic leukemia, TP53 Wild-type, read-out: IC50
  pIC50: 8.68
RT4, Bladder carcinoma, TP53 Wild-type, read-out: IC50
  pIC50: 5.91
SEM, Childhood B acute lymphoblastic leukemia, TP53 Mutant, read-out: IC50
  pIC50: 6.87
SET-2, SET-2, Adult acute megakaryoblastic leukemia, TP53 Mutant, read-out: IC50
  pIC50: 7.49
SJCRH30, Alveolar rhabdomyosarcoma, TP53 Mutant, read-out: IC50
  pIC50: < 4.50
SK-N-FI, Neuroblastoma, TP53 Mutant, read-out: IC50
  pIC50: 7.44
SR, Anaplastic large cell lymphoma, TP53 Mutant, read-out: IC50
  pIC50: 7.24
SR, SR cells, ALCL, read-out: IC50
  pIC50: 7.24
SU-DHL-1, SU-DHL-1, Anaplastic large cell lymphoma, TP53 Mutant, read-out: IC50
  pIC50: 4.89
SU-DHL-6, SU-DHL-6, Diffuse large B-cell lymphoma, TP53 Mutant, read-out: IC50
  pIC50: 7.10
SW48, SW48, Colon adenocarcinoma, TP53 Wild-type, read-out: IC50
  pIC50: 7.72
SW900, SW900, Squamous cell lung carcinoma, TP53 Mutant, read-out: IC50
  pIC50: 6.38
SW982, SW982, Biphasic synovial sarcoma, TP53 Wild-type, read-out: IC50
  pIC50: 7.96
T24, Bladder carcinoma, TP53 Mutant, read-out: IC50
  pIC50: < 4.50
Cell line 5637, Bladder carcinoma, TP53 Mutant, read-out: IC50
  pIC50: 4.56
Cell line A388, Squamous cell carcinoma, TP53 Mutant, read-out: IC50
  pIC50: < 4.50
Cell line AP-1060, Acute promyelocytic leukemia with PML-RARA, TP53 Unknown, read-out: IC50
  pIC50: 8.89
Cell line ES-2, Ovarian clear cell adenocarcinoma, TP53 Mutant, read-out: IC50
  pIC50: < 4.50
Cell line TT (Hereditary thyroid gland medullary carcinoma), TP53 Wild-type, read-out: IC50
  pIC50: 8.66
Multiple cell lines from diverse tumor tissue origins, read-out: IC50 in insensitive cell lines
  pIC50: < 4.50
